pIC50: −log10 of the molar value. Like-named read-outs stand apart in the source and are kept apart here.
Legend:
[1] = system: Caco-2 cells; settings: human, Caco-2, 2 h, 3 μM, pH 7.4
[2] = system: IFNα-induced STAT phosphorylation (pSTAT5); assay: IFNα-induced STAT phosphorylation in human whole blood; type: cell-based; settings: 1 h compound, 1000 U/mL IFNα A/D 15 min, CD3 positive population, read-out: Human Whole blood IFNa pSTAT5 IC50
[3] = Brain penetration in vivo assay (brain and plasma exposure); settings: C57BL6, brain / plasma, 10 mg/kg, mouse, 10 mpk, po, read-out: Ratio of exposure in brain to plasma (mouse) (1 h, 10 mpk, po)
Method: Brain Penetration In Vivo Assay
A pharmacokinetic study was performed using C57BL6 wild-type mice (n=3 per experiment) to determine brain and plasma exposure of compounds of the invention. The compound was administered orally in a solution of 5% ETHANOL: 90% PEG 300; 5% TPGS at 5 mL/kg for a final concentration of 10 mg/kg. Nice were euthanized 1 hour post-dose and plasma and brain were collected and frozen for analysis. Brain tissues were homogenized in a 1:1 volume of blank C57BL6 mouse plasma. Concentrations of the compound in plasma and brain homogenate were determined by LC-MS analysis.

[4] = in vitro; settings: human, Caco-2, pH 7.4

CACO2 (A-B) [1] | pIC50 [2] | Kp at 1 h [3] | Papp A→B at 2 h, 3 μM [4] | efflux ratio at 2 h, 3 μM [4] | Kp at 1 h ([3]; Table 4, comparison of CNS penetration with prior art) | SMILES
507 nm/s | – | – | – | – | – | [2H]C([2H])([2H])NC(=O)c1nnc(NC(=O)C2CC2)cc1Nc1ccc(C2CC2)c(-c2cnn(C)n2)c1OC [Example 55, 6-cyclopropaneamido-4-{[4-cyclopropyl-2-methoxy-3-(2-methyl-2H-1,2,3-triazol-4-yl)phenyl]amino}-N—(^2H3)methylpyridazine-3-carboxamide]
482 nm/s | – | – | – | – | – | [2H]C([2H])([2H])NC(=O)c1nnc(NC(=O)C2CC2)cc1Nc1cccc(-c2cnn(C([2H])([2H])[2H])n2)c1OC [Example 52, 6-cyclopropaneamido-4-({2-methoxy-3-[2-(^2H3)methyl-2H-1,2,3-triazol-4-yl]phenyl}amino)-N—(^2H3)methylpyridazine-3-carboxamide]
– | 6.54 | 0.8 | 32.7 ×10⁻⁶ cm/s | 0.6 | – | [2H]C([2H])([2H])NC(=O)c1nnc(NC(=O)C2CC2)cc1Nc1cc(F)cc(-c2cnn(C)n2)c1OC [Example 4, 6-cyclopropaneamido-4-{[5-fluoro-2-methoxy-3-(2-methyl-2H-1,2,3-triazol-4-yl)phenyl]amino}-N—(^2H3)methylpyridazine-3-carboxamide]
– | 7.00 | 0.2 | 14 ×10⁻⁶ cm/s | 0.3 | – | [2H]C([2H])([2H])NC(=O)c1nnc(NC(=O)C2CC2)cc1Nc1cc(C)cc(-c2cnn(C3CC3)n2)c1OC [Example 9, 6-cyclopropaneamido-4-{[3-(2-cyclopropyl-2H-1,2,3-triazol-4-yl)-2-methoxy-5-methylphenyl]amino}-N—(^2H3)methylpyridazine-3-carboxamide]
– | 7.10 | 0.3 | 33.9 ×10⁻⁶ cm/s | 0.5 | – | [2H]C([2H])([2H])NC(=O)c1nnc(NC(=O)[C@@H]2C[C@H]2C)cc1Nc1nccc(-c2cnn(C)n2)c1OC [Example 41, 4-((3-methoxy-4-(2-methyl-2H-1,2,3-triazol-4-yl)pyridin-2-yl)amino)-N-(methyl-d3)-6-((1R,2R)-2-methylcyclopropane-1-carboxamido)pyridazine-3-carboxamide]
– | 7.22 | 0.2 | 20.9 ×10⁻⁶ cm/s | 0.9 | – | [2H]C([2H])([2H])NC(=O)c1nnc(Nc2ccc(OC)nn2)cc1Nc1cccc(-c2cnn(C)n2)c1OC [Example 5, 4-{[2-methoxy-3-(2-methyl-2H-1,2,3-triazol-4-yl)phenyl]amino}-6-[(6-methoxypyridazin-3-yl)amino]-N—(^2H3)methylpyridazine-3-carboxamide]
– | 6.59 | 0.7 | 29.1 ×10⁻⁶ cm/s | 0.8 | – | [2H]C([2H])([2H])NC(=O)c1nnc(NC(=O)C2CC2)cc1Nc1cccc(-c2cnn(CC)n2)c1OC [Example 1, 6-(cyclopropanecarboxamido)-4-((2-methoxy-3-(2-ethyl-2H-1,2,3-triazol-4-yl)phenyl)amino)-N-(methyl-d3)pyridazine-3-carboxamide]
– | – | – | – | – | 0.02 | [2H]C([2H])([2H])NC(=O)c1nnc(NC(=O)C2CC2)cc1Nc1cccc(-c2ncn(C3CC3)n2)c1OC [B, reference compound]
– | 6.92 | 0.2 | 33 ×10⁻⁶ cm/s | 0.5 | – | [2H]C([2H])([2H])NC(=O)c1nnc(NC(=O)C2CC2)cc1Nc1cc(OC)cc(-c2cnn(C)n2)c1OC [Example 24, 6-(cyclopropane-carboxamido)-4-((2,5-dimethoxy-3-(2-methyl-2H-1,2,3-triazol-4-yl)phenyl)amino)-N-(methyl-d3)pyridazine-3-carboxamide]
– | 7.30 | 0.8 | 32.8 ×10⁻⁶ cm/s | 0.6 | – | [2H]C([2H])([2H])NC(=O)c1nnc(NC(=O)C2CC2)cc1Nc1nccc(-c2cnn(C)n2)c1OC [Example 36, 6-(cyclopropanecarboxamido)-4-((3-methoxy-4-(2-methyl-2H-1,2,3-triazol-4-yl)pyridin-2-yl)amino)-N-(methyl-d3)pyridazine-3-carboxamide]
– | 6.92 | 0.5 | 9.7 ×10⁻⁶ cm/s | 0.7 | – | [2H]C([2H])([2H])NC(=O)c1nnc(NC(=O)C2CC2)cc1Nc1cccc(-c2cnn(C3CC3)n2)c1OC [Example 11, 6-cyclopropaneamido-4-{[3-(2-cyclopropyl-2H-1,2,3-triazol-4-yl)-2-methoxyphenyl]amino}-N—(^2H3)methylpyridazine-3-carboxamide]
– | 7.70 | 0.1 | 49.4 ×10⁻⁶ cm/s | 0.9 | – | [2H]C([2H])([2H])NC(=O)c1nnc(NC(=O)[C@@H]2C[C@@H]2F)cc1Nc1nccc(-c2cnn(C)n2)c1OC [Example 37, 6-((1S,2S)-2-fluorocyclopropane-1-carboxamido)-4-((3-methoxy-4-(2-methyl-2H-1,2,3-triazol-4-yl)pyridin-2-yl)amino)-N-(methyl-d3)pyridazine-3-carboxamide]
– | 6.60 | – | 1.7 ×10⁻⁶ cm/s | < 0.9 | – | [2H]C([2H])([2H])NC(=O)c1nnc(Nc2cc(C)nc(C)n2)cc1Nc1nccc(-c2cnn(C)n2)c1OC [Example 64, 6-[(2,6-dimethylpyrimidin-4-yl)amino]-4-{[3-methoxy-4-(2-methyl-2H-1,2,3-triazol-4-yl)pyridin-2-yl]amino}-N—(^2H3)methylpyridazine-3-carboxamide]
– | 6.68 | – | 20.5 ×10⁻⁶ cm/s | 0.8 | – | [2H]C([2H])([2H])NC(=O)c1nnc(NC(=O)C2CC2)cc1Nc1cccc(-c2nn(C3CC3)nc2C)c1OC [Example 27, 6-(cyclopropanecarboxamido)-4-((3-(2-cyclopropyl-5-methyl-2H-1,2,3-triazol-4-yl)-2-methoxyphenyl)amino)-N-(methyl-d3)pyridazine-3-carboxamide]
– | 7.22 | – | 33.4 ×10⁻⁶ cm/s | 0.6 | – | [2H]C([2H])([2H])NC(=O)c1nnc(NC(=O)[C@@H]2C[C@@H]2C)cc1Nc1cccc(-c2cnn(C)n2)c1OC [Example 26, 4-((2-methoxy-3-(2-methyl-2H-1,2,3-triazol-4-yl)phenyl)amino)-N-(methyl-d3)-6-((1R,2S)-2-methylcyclopropane-1-carboxamido)pyridazine-3-carboxamide]
– | 8.52 | – | 36.2 ×10⁻⁶ cm/s | 0.6 | – | [2H]C([2H])([2H])NC(=O)c1nnc(NC(=O)[C@@H]2C[C@@H]2F)cc1Nc1nc(C)cc(-c2cnn(C)n2)c1OC [Example 69, 6-((1S,2S)-2-fluorocyclopropane-1-carboxamido)-4-((3-methoxy-6-methyl-4-(2-methyl-2H-1,2,3-triazol-4-yl)pyridin-2-yl)amino)-N-(methyl-d3)pyridazine-3-carboxamide]
– | 7.10 | – | 34.5 ×10⁻⁶ cm/s | 0.8 | – | [2H]C([2H])([2H])NC(=O)c1nnc(NC(=O)C2CC2)cc1Nc1ccc(C)c(-c2cnn(C)n2)c1OC [Example 33, 6-(cyclopropanecarboxamido)-4-((2-methoxy-4-methyl-3-(2-methyl-2H-1,2,3-triazol-4-yl)phenyl)amino)-N-(methyl-d3)pyridazine-3-carboxamide]

Reference: patent US11866414B2, “Substituted heterocyclic compounds” (BRISTOL-MYERS SQUIBB COMPANY, priority 2021, dated 2024)
